Results taken from article PMC8134483 (Scientific Reports, 2021).
Entries after “also recorded” stand apart in the source; their conditions may differ. Read-outs that look alike come from different tables or passages of the source.

Legend:
[1] = target: T1, hCB2R (Homo sapiens, UniProt P34972); experiment: PathHunter βarrestin2 recruitment, CB2R; format: cell-based; details: for βarrestin2 recruitment to CB2R, activity in words: relative to CP55,940
T1 construct: host or cells: CHO-K1 (PathHunter)
T1 sequence (P34972 whole entry): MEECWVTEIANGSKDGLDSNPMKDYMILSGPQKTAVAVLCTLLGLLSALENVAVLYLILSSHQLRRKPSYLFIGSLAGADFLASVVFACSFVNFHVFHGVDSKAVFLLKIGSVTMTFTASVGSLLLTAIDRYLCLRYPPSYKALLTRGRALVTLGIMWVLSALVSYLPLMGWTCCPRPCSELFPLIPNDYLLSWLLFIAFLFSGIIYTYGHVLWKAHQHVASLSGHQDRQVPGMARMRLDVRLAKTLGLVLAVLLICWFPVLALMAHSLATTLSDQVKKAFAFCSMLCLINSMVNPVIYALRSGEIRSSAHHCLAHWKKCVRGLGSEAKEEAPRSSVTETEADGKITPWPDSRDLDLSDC

[2] = target: T2, hCB1R (Homo sapiens, UniProt P21554); experiment: cell-based; format: cell-based; details: for EC50: CHO hCB1R, 10 µM FSK, 90 min, value with 95% CI, read-out: CB1R cAMP Inhibition EC50; for Emax: read-out: CB1R cAMP Inhibition Emax
T2 construct: expressed in transfected cells; host or cells: CHO-K1
T2 sequence (P21554 whole entry): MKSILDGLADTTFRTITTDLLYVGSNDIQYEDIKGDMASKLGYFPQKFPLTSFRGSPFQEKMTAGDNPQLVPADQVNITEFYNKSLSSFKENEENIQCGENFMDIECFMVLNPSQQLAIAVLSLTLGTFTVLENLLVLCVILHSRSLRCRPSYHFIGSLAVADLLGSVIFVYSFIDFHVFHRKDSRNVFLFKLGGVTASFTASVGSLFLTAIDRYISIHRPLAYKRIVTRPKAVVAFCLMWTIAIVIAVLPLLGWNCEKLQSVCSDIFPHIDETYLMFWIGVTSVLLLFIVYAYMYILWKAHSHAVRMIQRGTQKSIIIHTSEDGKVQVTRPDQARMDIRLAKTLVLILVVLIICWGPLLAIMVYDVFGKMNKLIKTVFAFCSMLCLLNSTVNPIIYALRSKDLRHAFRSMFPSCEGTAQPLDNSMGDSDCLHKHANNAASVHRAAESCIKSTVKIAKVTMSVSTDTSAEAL

[3] = target: T1, hCB2R; experiment: CB2R bias analysis (operational model, cAMP inhibition vs βarrestin2); format: cell-based; details: CP55,940 as reference agonist; >0 cAMP bias, <0 βarrestin2 bias
Protocol: Estimates of Ki, EC50, Emin, and Emax were determined using non-linear regression with variable slope (four parameters) (GraphPad, Prism, v. 8.0). […] One-way analysis of variance (ANOVA), followed by Tukey’s post-hoc test, was used for statistical analyses (p < 0.05 determined to be significant); and Bartlett’s test was used to confirm homogeneity of variance (GraphPad).

[4] = target: T2, hCB1R; experiment: cell-based; format: cell-based; details: for CB1R versus CB2R selectivity, βarrestin2 recruitment: CB1R vs CB2R; for EC50: CHO hCB1R, 90 min, value with 95% CI, read-out: CB1R βarrestin2 recruitment EC50; for Emax: read-out: CB1R βarrestin2 recruitment Emax; for βarrestin2 recruitment to CB1R, activity in words: relative to CP55940
[5] = target: T1, hCB2R; experiment: [^3H]CP55,940 competition (radioligand displacement) binding to CB2R; details: for CB2R [^3H]CP55,940 Emin: bottom of the concentration–response curve, mean ± SEM
[6] = target: T2, hCB1R; experiment: biochemical; format: binding; details: for CB1R [^3H]CP55,940 Emin: bottom of the concentration–response curve, mean ± SEM
[7] = target: T1, hCB2R; experiment: HitHunter inhibition of FSK-stimulated cAMP, CB2R; format: cell-based

COC(=O)[C@H](Cc1ccccc1)NC(=O)c1cn(CCCCCF)c2ccccc12 [5-fluoro MPP-PICA]
EC50 [1]: 630 nM
Emax [1]: 82 ± 1.9%
βarrestin2 recruitment to CB2R, activity in words [1]: not different with regard to potency relative to the reference agonist CP55,940, and produced supramaximal EMax responses
EC50 [2]: 6.4 nM
Emax [2]: 92 ± 6.8%
CB2R bias between cAMP inhibition and βarrestin2 recruitment, ∆∆LogR (cAMP—βarr2), in words [3]: did not display a bias
CB1R versus CB2R selectivity, βarrestin2 recruitment [4]: minimally active at CB1R but agonists at CB2R
EC50 [4]: > 10000 nM
Emax [4]: 170 ± 9.8%
Affinity for CB2R compared with CP55,940, in words [5]: significantly less affinity
Ki [5]: 540 nM
CB2R [^3H]CP55,940 Emin [5]: 89 ± 6.3 %
Affinity for CB1R compared with CP55,940, in words [6]: significantly less affinity
Ki [6]: 1200 nM
CB1R [^3H]CP55,940 Emin [6]: 59 ± 18 %
EC50 [7]: 12 nM
Emax [7]: 110 ± 13%

CCCCCn1cc(C(=O)c2ccc(CCC)c3ccccc23)c2ccccc21 [JWH 182]
EC50 [1]: > 10000 nM
Emax [1]: 13 ± 1.8%
βarrestin2 recruitment to CB2R, activity in words [1]: inactive in βarrestin2; also recorded: Inactive at βarrestin2
CB1R versus CB2R selectivity, cAMP inhibition efficacy ([2]; CB1R vs CB2R): greater efficacy at CB2R than CB1R
EC50 [2]: 24 nM
Emax [2]: 78 ± 9.4%
CB2R bias between cAMP inhibition and βarrestin2 recruitment, ∆∆LogR (cAMP—βarr2), in words [3]: obligate cAMP-biased ligands
CB1R versus CB2R selectivity, βarrestin2 recruitment [4]: inactive at CB2R but an agonist at CB1R
EC50 [4]: 1600 nM
Emax [4]: 110 ± 9.2%
βarrestin2 recruitment to CB1R, activity in words [4]: equipotent, but produced supramaximal EMax responses
Ki [5]: 6.2 nM
CB2R [^3H]CP55,940 Emin [5]: 21 ± 1.7 %
Ki [6]: 0.77 nM
CB1R [^3H]CP55,940 Emin [6]: 17 ± 2.2%
EC50 [7]: 25 nM
Emax [7]: 120 ± 11%

CCCCCn1c2ccccc2c2cc(C(=O)c3cccc4ccccc34)ccc21 [EG 018]
Emax [1]: 10 ± 1.9%
EC50 ([1]; CHO hCB2R, 90 min, value with 95% CI, read-out: CB2R βarrestin2 recruitment EC50): 770 nM
Emax [2]: 104 ± 18%
CB1R-dependent inhibition of FSK-stimulated cAMP, activity in words ([2]; relative to CP55940): significantly lower potency relative to CP55940, but retained full (i.e., 100%) efficacy
CB2R bias between cAMP inhibition and βarrestin2 recruitment, ∆∆LogR (cAMP—βarr2), in words [3]: significant bias toward the inhibition of cAMP
Emax [4]: 5.2 ± 0.54%
βarrestin2 recruitment to CB1R, activity in words [4]: Inactive at βarrestin2
Affinity for CB2R compared with CP55,940, in words [5]: significantly greater affinity
Ki [5]: 1.9 nM
CB2R [^3H]CP55,940 Emin [5]: 53 ± 4.0 %
CB1R [^3H]CP55,940 Emin [6]: 68 ± 6.1 %
Emax [7]: 85 ± 17%
EC50 ([7]; CHO hCB2R, 10 µM FSK, 90 min, value with 95% CI, read-out: CB2R cAMP Inhibition EC50): 51 nM

CCCCCn1cc(C(=O)c2cccc3ccccc23)cc1-c1ccccc1 [JWH 145]
EC50 [1]: 190 nM
Emax [1]: 15 ± 1.7%
CB1R versus CB2R selectivity, cAMP inhibition potency ([2]; CB1R vs CB2R): more potent at CB1R relative to CB2R
EC50 [2]: 0.03 nM
Emax [2]: 82 ± 9.3%
CB2R bias between cAMP inhibition and βarrestin2 recruitment, ∆∆LogR (cAMP—βarr2), in words [3]: significant bias toward the inhibition of cAMP
EC50 [4]: > 10000 nM
Emax [4]: 27 ± 9%
Affinity for CB2R compared with CP55,940, in words [5]: significantly less affinity
Ki [5]: 860 nM
CB2R [^3H]CP55,940 Emin [5]: 70 ± 6.1 %
Ki [6]: 110 nM
CB1R [^3H]CP55,940 Emin [6]: 69 ± 7.6 %
EC50 [7]: 61 nM
Emax [7]: 86 ± 17%

Cc1ccc(C(=O)c2cn(CCCCCCl)c3ccccc23)c2ccccc12 [MAM2201 N-(5-chloropentyl) analog]
EC50 [1]: > 10000 nM
Emax [1]: 5.5 ± 1.9%
βarrestin2 recruitment to CB2R, activity in words [1]: inactive in βarrestin2
βarrestin2 recruitment to CB2R, activity in words ([1]; listed as MAM-2201 N-(5-chloropentyl) analog): Inactive at βarrestin2
CB1R versus CB2R selectivity, cAMP inhibition potency ([2]; CB1R vs CB2R): more potent at CB1R relative to CB2R
EC50 [2]: 2.8 nM
Emax [2]: 98 ± 8.7%
CB2R bias between cAMP inhibition and βarrestin2 recruitment, ∆∆LogR (cAMP—βarr2), in words [3]: obligate cAMP-biased ligands
EC50 [4]: > 10000 nM
Emax [4]: 17 ± 2.7%
βarrestin2 recruitment to CB1R, activity in words [4]: Inactive at βarrestin2
Affinity for CB2R compared with CP55,940, in words [5]: significantly less affinity
Ki [5]: > 10000 nM
CB2R [^3H]CP55,940 Emin [5]: 40 ± 3.8 %
Ki [6]: 10 nM
CB1R versus CB2R selectivity, receptor affinity ([6]; CB1R vs CB2R [^3H]CP55,940 binding): greater affinity at CB1R relative to CB2R
CB1R [^3H]CP55,940 Emin [6]: 5.3 ± 3.0%
EC50 [7]: 580 nM
Emax [7]: 120 ± 25%
